Laboratory results: ChEMBL document CHEMBL1201862, “PubChem BioAssay data set” (2004)
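Protocol summary: plate cells (96-well), add compound at 5 concentrations, incubate 48 h, interpolate endpoints linearly. GI50: concentration for 50% inhibition of growth.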 Activity calls are given as the source filed them. Rule as the data show it: active = GI50 up to about 1.1 µM and inactive = higher.

Tests used:
Assay in all cases: inhibition of tumour cell growth, NCI panel, 48 h
786-0 = system: 786-0
A498 = system: A498
A549 = system: A549
ACHN = system: ACHN
BT-549 = system: BT-549
CAKI-1 = system: CAKI-1
CCRF-CEM = system: CCRF-CEM
COLO 205 = system: COLO 205
DU-145 = system: DU-145
EKVX = system: EKVX
HCT-116 = system: HCT-116
HCT-15 = system: HCT-15
HL-60 = system: HL-60
HOP-62 = system: HOP-62
HT-29 = system: HT-29
Hs-578T = system: Hs-578T
IGROV-1 = system: IGROV-1
KM12 = system: KM12
LOX IMVI = system: LOX IMVI
M14 = system: M14
MDA-MB-231 = system: MDA-MB-231
MDA-MB-435 = system: MDA-MB-435
MOLT-4 = system: MOLT-4
Malme-3M = system: Malme-3M
NCI-H226 = system: NCI-H226
NCI-H23 = system: NCI-H23
NCI-H522 = system: NCI-H522
NCI/ADR-RES = system: NCI/ADR-RES
OVCAR-4 = system: OVCAR-4
OVCAR-5 = system: OVCAR-5
OVCAR-8 = system: OVCAR-8
PC-3 = system: PC-3
RXF 393 = system: RXF 393
SF-268 = system: SF-268
SF-295 = system: SF-295
SF-539 = system: SF-539
SK-MEL-28 = system: SK-MEL-28
SK-MEL-2 = system: SK-MEL-2
SK-MEL-5 = system: SK-MEL-5
SK-OV-3 = system: SK-OV-3
SN12C = system: SN12C
SNB-19 = system: SNB-19
SNB-75 = system: SNB-75
SW-620 = system: SW-620
T47D = system: T47D
TK-10 = system: TK-10
U-251 = system: U-251
UACC-257 = system: UACC-257
UACC-62 = system: UACC-62
UO-31 = system: UO-31
HCC 2998 = system: HCC 2998
K562 = system: K562
MCF7 = system: MCF7
NCI-H460 = system: NCI-H460
OVCAR-3 = system: OVCAR-3
RPMI-8226 = system: RPMI-8226
SR = system: SR

In the case of `CC12CC3c4ccccc4CN1C3(c1ccccc1)OC2=O` (stereo not given), the GI50 (786-0) was > 100 µM (inactive), the GI50 (A498) was > 100 µM (inactive) and the GI50 (A549) was > 100 µM (inactive). The GI50 (ACHN) was > 100 µM (inactive), the GI50 (BT-549) was > 100 µM (inactive) and the GI50 (CAKI-1) was > 100 µM (inactive). The GI50 (CCRF-CEM) was > 100 µM (inactive), the GI50 (COLO 205) was > 100 µM (inactive) and the GI50 (DU-145) was > 100 µM (inactive). The GI50 (EKVX) was > 100 µM (inactive), the GI50 (HCT-116) was > 100 µM (inactive) and the GI50 (HCT-15) was greater than 100 µM. The GI50 (HL-60) was > 100 µM (inactive), the GI50 (HOP-62) was > 100 µM (inactive) and the GI50 (HT-29) was > 100 µM (inactive). For the same compound, the GI50 (Hs-578T) was > 100 µM (inactive), the GI50 (IGROV-1) was > 100 µM (inactive) and the GI50 (KM12) was > 100 µM (inactive). For the same compound, the GI50 (LOX IMVI) was > 100 µM (inactive), the GI50 (M14) was > 100 µM (inactive) and the GI50 (MDA-MB-231) was > 100 µM (inactive). The GI50 (MDA-MB-435) was > 100 µM (inactive), the GI50 (MOLT-4) was > 100 µM (inactive) and the GI50 (Malme-3M) was > 100 µM (inactive). For the same compound, the GI50 (NCI-H226) was > 100 µM (inactive), the GI50 (NCI-H23) was > 100 µM (inactive) and the GI50 (NCI-H522) was > 100 µM (inactive). The GI50 (NCI/ADR-RES) was > 100 µM (inactive), the GI50 (OVCAR-4) was > 100 µM (inactive) and the GI50 (OVCAR-5) was > 100 µM (inactive). For the same compound, the GI50 (OVCAR-8) was > 100 µM (inactive), the GI50 (PC-3) was > 100 µM (inactive) and the GI50 (RXF 393) was > 100 µM (inactive). For the same compound, the GI50 (SF-268) was > 100 µM (inactive), the GI50 (SF-295) was > 100 µM (inactive) and the GI50 (SF-539) was > 100 µM (inactive). The GI50 (SK-MEL-28) was > 100 µM (inactive), the GI50 (SK-MEL-2) was > 100 µM (inactive) and the GI50 (SK-MEL-5) was > 100 µM (inactive). The GI50 (SK-OV-3) was > 100 µM (inactive), the GI50 (SN12C) was > 100 µM (inactive) and the GI50 (SNB-19) was > 100 µM (inactive). For the same compound, the GI50 (SNB-75) was > 100 µM (inactive), the GI50 (SW-620) was > 100 µM (inactive) and the GI50 (T47D) was > 100 µM (inactive). The GI50 (TK-10) was > 100 µM (inactive), the GI50 (U-251) was > 100 µM (inactive) and the GI50 (UACC-257) was > 100 µM (inactive). For the same compound, the GI50 (UACC-62) was > 100 µM (inactive) and the GI50 (UO-31) was > 100 µM (inactive).
In the case of `COc1ccc([C@@]23OC[C@@H]4[C@@H](OC[C@@H]42)c2cc(OC)c(OC)cc23)cc1OC`, the GI50 (786-0) was > 100 µM (inactive), the GI50 (A498) was > 100 µM (inactive) and the GI50 (A549) was > 100 µM (inactive). For the same compound, the GI50 (ACHN) was > 100 µM (inactive), the GI50 (BT-549) was > 100 µM (inactive) and the GI50 (CAKI-1) was > 100 µM (inactive). The GI50 (COLO 205) was > 100 µM (inactive), the GI50 (DU-145) was > 100 µM (inactive) and the GI50 (EKVX) was > 100 µM (inactive). The GI50 (HCC 2998) was > 100 µM (inactive), the GI50 (HCT-116) was > 100 µM (inactive) and the GI50 (HCT-15) was greater than 100 µM. For the same compound, the GI50 (HL-60) was > 100 µM (inactive), the GI50 (HOP-62) was > 100 µM (inactive) and the GI50 (IGROV-1) was > 100 µM (inactive). The GI50 (K562) was > 100 µM (inactive), the GI50 (KM12) was > 100 µM (inactive) and the GI50 (LOX IMVI) was > 100 µM (inactive). The GI50 (M14) was > 100 µM (inactive), the GI50 (MCF7) was > 100 µM (inactive) and the GI50 (MDA-MB-231) was > 100 µM (inactive). For the same compound, the GI50 (MDA-MB-435) was > 100 µM (inactive), the GI50 (MOLT-4) was > 100 µM (inactive) and the GI50 (Malme-3M) was > 100 µM (inactive). For the same compound, the GI50 (NCI-H226) was > 100 µM (inactive), the GI50 (NCI-H23) was > 100 µM (inactive) and the GI50 (NCI-H460) was > 100 µM (inactive). For the same compound, the GI50 (NCI-H522) was > 100 µM (inactive), the GI50 (NCI/ADR-RES) was > 100 µM (inactive) and the GI50 (OVCAR-3) was > 100 µM (inactive). The GI50 (OVCAR-4) was > 100 µM (inactive), the GI50 (OVCAR-5) was > 100 µM (inactive) and the GI50 (PC-3) was > 100 µM (inactive). For the same compound, the GI50 (RPMI-8226) was > 100 µM (inactive), the GI50 (RXF 393) was > 100 µM (inactive) and the GI50 (SF-295) was > 100 µM (inactive). For the same compound, the GI50 (SF-539) was > 100 µM (inactive), the GI50 (SK-MEL-28) was > 100 µM (inactive) and the GI50 (SK-MEL-2) was > 100 µM (inactive). The GI50 (SK-MEL-5) was > 100 µM (inactive), the GI50 (SK-OV-3) was > 100 µM (inactive) and the GI50 (SNB-19) was > 100 µM (inactive). The GI50 (SNB-75) was > 100 µM (inactive), the GI50 (SR) was > 100 µM (inactive) and the GI50 (SW-620) was > 100 µM (inactive). For the same compound, the GI50 (T47D) was > 100 µM (inactive), the GI50 (TK-10) was > 100 µM (inactive) and the GI50 (U-251) was > 100 µM (inactive). The GI50 (UACC-62) was > 100 µM (inactive) and the GI50 (UO-31) was > 100 µM (inactive).
